Values quoted from earlier work in patent US11918665B2, “Method for dyeing keratinous material, comprising the use of an organosilicon compound, a colored effect pigment and a sealing reagent I” (Henkel AG & Co. KGaA, priority 2019, dated 2024).

Conditions: 25° C.

Row | Compound | solubility in water | solubility in water (in words)
1 | O=S(=O)([O-])c1ccc(N=Nc2c(O)ccc3ccccc23)cc1.[Na+] [Acid Orange 7, sodium salt of 4-[(2-hydroxy-1-naphthyl)azo]benzene sulphonate] | more than 7 g/L | 
2 | Nc1cc(S(=O)(=O)[O-])cc2cc(S(=O)(=O)[O-])c(N=Nc3ccccc3)c(O)c12.[Na+].[Na+] [Acid Red 33, disodium salt of 5-amino-4-hydroxy-3-(phenylazo)-naphthalene-2,7-disulphonate] | 2500 µg/mL | 
3 | O=C([O-])c1c(Cl)c(Cl)c(Cl)c(Cl)c1-c1c2c(Br)cc(=O)c(Br)c-2oc2c(Br)c(O)cc(Br)c12.O=C([O-])c1c(Cl)c(Cl)c(Cl)c(Cl)c1-c1c2c(Br)cc(=O)c(Br)c-2oc2c(Br)c(O)cc(Br)c12.[Na+].[Na+] [Acid Red 92, disodium salt of 3,4,5,6-tetrachloro-2-(1,4,5,8-tetrabromo-6-hydroxy-3-oxoxanthen-9-yl)benzoic acid] | greater than 10 g/L | 
4 | O=C([O-])C1=NN(c2ccc(S(=O)(=O)[O-])cc2)C(=O)C1N=Nc1ccc(S(=O)(=O)[O-])cc1.[Na+].[Na+].[Na+] (stereo not shown) [Acid Yellow 23, trisodium salt of 4,5-dihydro-5-oxo-1-(4-sulfophenyl)-4-((4-sulfophenyl)azo)-1H-pyrazole-3-carboxylic acid] |  | highly soluble in water
